Results as given in ChEMBL document CHEMBL4321837, “Discovery of Potent and Orally Effective Dual Janus Kinase 2/FLT3 Inhibitors for the Treatment of Acute Myelogenous Leukemia and Myeloproliferative Neoplasms” (J Med Chem, 2019).

Tests used:
[1] = molecular target: Receptor-type tyrosine-protein kinase FLT3 (Homo sapiens) (UniProt P36888); assay: Inhibition of human FLT3 (564 to end residues) assessed as residual activity at 100 nM using EAIYAAPFAKKK as substrate after 40 mins in presence of [gamma33P]-ATP by scintillation counting based radiometric assay relative to control
Chain of Receptor-type tyrosine-protein kinase FLT3 (Homo sapiens) (P36888 whole entry): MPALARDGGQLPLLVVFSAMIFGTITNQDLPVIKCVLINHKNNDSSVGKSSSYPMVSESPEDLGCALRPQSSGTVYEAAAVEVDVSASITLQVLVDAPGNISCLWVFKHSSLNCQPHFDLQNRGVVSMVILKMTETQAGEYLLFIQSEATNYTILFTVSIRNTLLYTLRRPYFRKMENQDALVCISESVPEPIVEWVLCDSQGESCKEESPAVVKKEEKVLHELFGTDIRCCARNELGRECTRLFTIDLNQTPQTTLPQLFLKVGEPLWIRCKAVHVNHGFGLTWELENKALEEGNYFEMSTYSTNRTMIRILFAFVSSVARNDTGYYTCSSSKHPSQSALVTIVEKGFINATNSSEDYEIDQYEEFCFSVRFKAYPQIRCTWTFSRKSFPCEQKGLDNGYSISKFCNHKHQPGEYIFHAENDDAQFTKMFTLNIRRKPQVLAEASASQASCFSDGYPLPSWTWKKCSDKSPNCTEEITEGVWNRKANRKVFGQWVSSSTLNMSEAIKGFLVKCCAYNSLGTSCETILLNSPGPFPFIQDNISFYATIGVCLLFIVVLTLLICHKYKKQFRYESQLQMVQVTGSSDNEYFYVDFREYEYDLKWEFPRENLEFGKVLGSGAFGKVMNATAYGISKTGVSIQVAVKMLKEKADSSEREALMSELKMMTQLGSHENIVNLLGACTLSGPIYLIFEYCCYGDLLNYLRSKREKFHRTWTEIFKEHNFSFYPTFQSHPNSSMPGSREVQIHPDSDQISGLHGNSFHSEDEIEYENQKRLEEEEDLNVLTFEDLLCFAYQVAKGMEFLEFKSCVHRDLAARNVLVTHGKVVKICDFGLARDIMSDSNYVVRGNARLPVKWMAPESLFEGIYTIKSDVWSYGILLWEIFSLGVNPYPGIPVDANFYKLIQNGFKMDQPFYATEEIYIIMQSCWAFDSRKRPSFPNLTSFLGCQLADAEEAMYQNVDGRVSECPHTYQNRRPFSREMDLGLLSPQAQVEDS

[2] = tested on: MV4-11; assay: Antiproliferative activity against FLT3-ITD-positive human MV4-11 cells assessed as reduction in cell growth after 72 hrs by MTT assay; type: functional, cell-based; conditions: MV4-11, 72 h
[3] = molecular target: Tyrosine-protein kinase JAK2 (Homo sapiens, UniProt O60674); assay: Inhibition of human JAK2 (808 to end residues) assessed as residual activity at 100 nM using KTFCGTPEYLAP as substrate after 40 mins in presence of [gamma33P]-ATP by scintillation counting based radiometric assay relative to control
Chain of Tyrosine-protein kinase JAK2 (O60674 whole entry): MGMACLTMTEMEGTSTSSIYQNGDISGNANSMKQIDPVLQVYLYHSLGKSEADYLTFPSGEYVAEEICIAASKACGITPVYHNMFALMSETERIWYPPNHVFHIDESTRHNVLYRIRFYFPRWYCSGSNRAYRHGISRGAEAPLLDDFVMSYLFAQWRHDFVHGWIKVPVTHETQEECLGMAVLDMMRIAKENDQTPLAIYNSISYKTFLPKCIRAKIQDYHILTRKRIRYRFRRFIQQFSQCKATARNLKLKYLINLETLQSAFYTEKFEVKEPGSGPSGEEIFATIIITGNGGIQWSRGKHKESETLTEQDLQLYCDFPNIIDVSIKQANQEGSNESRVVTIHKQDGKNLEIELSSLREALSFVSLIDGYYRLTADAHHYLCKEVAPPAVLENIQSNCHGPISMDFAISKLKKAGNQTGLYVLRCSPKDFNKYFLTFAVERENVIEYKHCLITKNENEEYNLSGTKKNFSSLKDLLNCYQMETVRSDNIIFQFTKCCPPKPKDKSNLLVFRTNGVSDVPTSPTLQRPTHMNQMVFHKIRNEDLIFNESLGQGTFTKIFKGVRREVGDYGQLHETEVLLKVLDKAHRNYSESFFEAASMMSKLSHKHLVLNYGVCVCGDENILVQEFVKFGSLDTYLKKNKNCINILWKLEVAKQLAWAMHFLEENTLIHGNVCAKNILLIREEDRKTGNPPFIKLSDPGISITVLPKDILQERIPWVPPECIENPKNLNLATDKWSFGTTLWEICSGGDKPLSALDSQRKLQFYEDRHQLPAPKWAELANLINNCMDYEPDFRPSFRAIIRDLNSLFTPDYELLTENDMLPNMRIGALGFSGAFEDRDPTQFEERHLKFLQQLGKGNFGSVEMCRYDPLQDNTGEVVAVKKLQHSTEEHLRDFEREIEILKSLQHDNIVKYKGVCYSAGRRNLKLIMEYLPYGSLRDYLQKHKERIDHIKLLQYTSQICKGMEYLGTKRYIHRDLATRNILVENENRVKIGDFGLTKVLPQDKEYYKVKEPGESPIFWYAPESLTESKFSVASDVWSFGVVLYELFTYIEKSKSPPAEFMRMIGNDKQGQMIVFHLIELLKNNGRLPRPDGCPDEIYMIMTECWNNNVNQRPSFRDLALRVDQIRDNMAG

[4] = molecular target: Tyrosine-protein kinase JAK1 (Homo sapiens, UniProt P23458); assay: Inhibition of human JAK1 (866 to end residues) assessed as residual activity at 100 nM using GEEPLYWSFPAKK as substrate after 40 mins in presence of [gamma33P]-ATP by scintillation counting based radiometric assay relative to control
Chain of Tyrosine-protein kinase JAK1 (P23458 whole entry): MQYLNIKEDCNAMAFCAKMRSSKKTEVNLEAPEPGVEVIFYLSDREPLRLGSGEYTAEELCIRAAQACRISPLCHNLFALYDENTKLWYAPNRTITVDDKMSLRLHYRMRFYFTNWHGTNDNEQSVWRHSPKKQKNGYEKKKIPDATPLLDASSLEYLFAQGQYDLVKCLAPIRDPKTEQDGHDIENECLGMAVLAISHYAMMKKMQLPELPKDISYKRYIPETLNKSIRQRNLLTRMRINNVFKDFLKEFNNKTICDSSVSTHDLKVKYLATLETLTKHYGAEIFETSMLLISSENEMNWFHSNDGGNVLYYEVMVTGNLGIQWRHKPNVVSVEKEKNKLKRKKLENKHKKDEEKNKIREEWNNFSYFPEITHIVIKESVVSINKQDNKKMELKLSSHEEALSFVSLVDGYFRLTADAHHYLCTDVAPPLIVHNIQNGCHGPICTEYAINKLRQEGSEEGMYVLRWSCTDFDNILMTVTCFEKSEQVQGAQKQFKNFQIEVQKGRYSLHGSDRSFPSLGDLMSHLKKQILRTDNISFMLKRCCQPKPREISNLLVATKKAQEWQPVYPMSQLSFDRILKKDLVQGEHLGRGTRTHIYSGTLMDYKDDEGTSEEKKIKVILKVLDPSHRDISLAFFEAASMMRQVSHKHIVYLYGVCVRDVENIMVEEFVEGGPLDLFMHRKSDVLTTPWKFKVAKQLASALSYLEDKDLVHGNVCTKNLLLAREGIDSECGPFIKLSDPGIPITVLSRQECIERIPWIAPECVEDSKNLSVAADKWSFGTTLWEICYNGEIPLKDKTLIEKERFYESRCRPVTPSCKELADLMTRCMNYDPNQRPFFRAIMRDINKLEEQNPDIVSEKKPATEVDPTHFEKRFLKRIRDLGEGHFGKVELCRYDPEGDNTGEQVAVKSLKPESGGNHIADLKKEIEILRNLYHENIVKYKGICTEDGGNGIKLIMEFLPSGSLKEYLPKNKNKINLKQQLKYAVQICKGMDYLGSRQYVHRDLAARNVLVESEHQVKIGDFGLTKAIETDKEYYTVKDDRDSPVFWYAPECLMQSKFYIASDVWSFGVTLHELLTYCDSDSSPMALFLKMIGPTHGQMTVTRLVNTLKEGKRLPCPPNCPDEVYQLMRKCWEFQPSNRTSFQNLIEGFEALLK

[5] = tested on: MOLM-13; assay: Antiproliferative activity against FLT3-ITD-positive human MOLM13 cells assessed as reduction in cell growth after 72 hrs by MTT assay; type: functional, cell-based; conditions: MOLM-13, 72 h
[6] = molecular target: T1, Tyrosine-protein kinase JAK3 (Homo sapiens) (UniProt P52333); assay: Inhibition of human JAK3 (781 to end residues) assessed as residual activity at 100 nM using GGEEEEYFELVKK as substrate after 40 mins in presence of [gamma33P]-ATP by scintillation counting based radiometric assay relative to control
T1 sequence (whole entry): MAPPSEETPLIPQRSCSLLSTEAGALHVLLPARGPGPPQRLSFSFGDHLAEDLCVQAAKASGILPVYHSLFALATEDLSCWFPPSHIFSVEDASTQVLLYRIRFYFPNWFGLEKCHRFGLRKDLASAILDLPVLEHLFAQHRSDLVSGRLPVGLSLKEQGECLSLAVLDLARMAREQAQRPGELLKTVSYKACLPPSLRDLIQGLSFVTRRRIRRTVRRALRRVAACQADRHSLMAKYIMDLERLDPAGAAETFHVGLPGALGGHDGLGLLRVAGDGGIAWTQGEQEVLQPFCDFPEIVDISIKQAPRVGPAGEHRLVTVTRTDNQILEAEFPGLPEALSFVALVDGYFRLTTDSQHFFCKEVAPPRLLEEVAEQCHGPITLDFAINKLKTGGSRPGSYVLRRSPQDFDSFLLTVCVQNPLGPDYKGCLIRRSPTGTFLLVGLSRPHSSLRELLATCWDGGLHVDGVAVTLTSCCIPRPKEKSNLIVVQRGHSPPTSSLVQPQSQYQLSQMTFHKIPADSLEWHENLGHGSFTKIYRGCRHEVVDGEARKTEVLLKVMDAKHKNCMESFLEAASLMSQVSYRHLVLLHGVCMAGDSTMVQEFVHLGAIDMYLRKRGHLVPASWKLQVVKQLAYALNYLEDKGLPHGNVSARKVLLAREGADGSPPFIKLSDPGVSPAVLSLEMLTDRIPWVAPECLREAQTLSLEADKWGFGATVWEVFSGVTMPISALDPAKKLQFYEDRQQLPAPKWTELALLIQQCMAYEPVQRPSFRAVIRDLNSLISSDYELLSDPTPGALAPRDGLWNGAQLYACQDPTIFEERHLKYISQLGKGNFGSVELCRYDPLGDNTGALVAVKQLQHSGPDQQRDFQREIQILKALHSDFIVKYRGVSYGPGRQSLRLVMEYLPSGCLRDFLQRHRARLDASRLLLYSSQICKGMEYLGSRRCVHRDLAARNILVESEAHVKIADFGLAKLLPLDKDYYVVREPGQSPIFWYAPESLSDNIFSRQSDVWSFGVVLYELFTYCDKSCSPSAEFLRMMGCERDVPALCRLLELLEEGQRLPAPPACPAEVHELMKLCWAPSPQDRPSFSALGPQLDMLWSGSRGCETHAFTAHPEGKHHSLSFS

Row | SMILES | Activity [1] [%] | IC50 [2] [nM] | Activity [3] [%] | Activity [4] [%] | IC50 [5] [nM] | Activity [6] [%]
1 | CCN(CCN1CCOCC1)C1CCN(c2ccc(Nc3ncc(C)c(-c4cnn(C(C)C)c4)n3)cc2F)CC1 | 7 | 43 | 11 | 23 | 150 | 33
2 | Cc1cnc(Nc2ccc(N3CCC(N(C)C)CC3)c(F)c2)nc1-c1cnn(C(C)C)c1 | 8 | 5.4 | 5 | 17 | 100 | 23
3 | Cc1cnc(Nc2ccc(N3CCC(N(C)CCN4CCOCC4)CC3)c(F)c2)nc1-c1cnn(C(C)C)c1 | 5 | 18 | 23 | 20 | 89 | 37
4 | CCCN(CCN1CCOCC1)C1CCN(c2ccc(Nc3ncc(C)c(-c4cnn(C(C)C)c4)n3)cc2F)CC1 | 8 | 210 | 8 | 20 | 210 | 9
5 | CCCCn1cc(-c2nc(Nc3ccc(N4CCN(C)CC4)c(F)c3)ncc2F)cn1 | 11 | 27 | 15 | 49 | 540 | 41
6 | Cc1cnc(Nc2ccc(N3CCC(NCCO)CC3)c(F)c2)nc1-c1cnn(C(C)C)c1 | – | 200 | – | – | 550 | –
7 | CCCCCCN(C)C1CCN(c2ccc(Nc3ncc(C)c(-c4cnn(C(C)C)c4)n3)cc2F)CC1 | 6 | 70 | 18 | 26 | 210 | 44
8 | CCCN1CCC(n2cc(-c3nc(Nc4ccc(N5CCN(C)CC5)c(F)c4)ncc3F)cn2)CC1 | – | 110 | – | – | 190 | –
9 | CCCN(C)C1CCN(c2ccc(Nc3ncc(C)c(-c4cnn(C(C)C)c4)n3)cc2F)CC1 | 6 | 7.3 | 3 | 24 | 47 | 9
10 | CCOCCN(C)C1CCN(c2ccc(Nc3ncc(C)c(-c4cnn(C(C)C)c4)n3)cc2F)CC1 | 5 | 7.3 | 9 | 19 | 28 | 28
11 | CN1CCN(c2ccc(Nc3ncc(F)c(-c4cnn(C5CCCC5)c4)n3)cc2F)CC1 | – | 8300 | – | – | – | –
12 | Cc1cnc(Nc2ccc(N3CCC(N(C)CCN4CCCCC4)CC3)c(F)c2)nc1-c1cnn(C(C)C)c1 | 6 | 12 | 4 | 21 | 170 | 38
13 | CCCCN1CCC(n2cc(-c3nc(Nc4ccc(N5CCN(C)CC5)c(F)c4)ncc3F)cn2)CC1 | 13 | 240 | 19 | 68 | 180 | 32
14 | CN(C)C1CCN(c2ccc(Nc3ncc(F)c(-c4cnn(C5CCCC5)c4)n3)cc2F)CC1 | – | 4500 | – | – | – | –
15 | CC(C)n1cc(-c2nc(Nc3ccc(N4CCC(N5CCCCC5)CC4)c(F)c3)ncc2F)cn1 | 10 | 26 | 8 | 36 | 100 | 47
16 | Cc1cnc(Nc2ccc(N3CCC(N(C)CC4CC4)CC3)c(F)c2)nc1-c1cnn(C(C)C)c1 | 4 | 8.1 | 15 | 20 | 31 | 31
17 | Cc1cnc(Nc2ccc(N3CCC(CO)CC3)c(F)c2)nc1-c1cnn(C(C)C)c1 | – | 160 | – | – | 840 | –
18 | Cc1cnc(Nc2ccc(N3CCC(N(C)CCCCCO)CC3)c(F)c2)nc1-c1cnn(C(C)C)c1 | – | > 1000 | – | – | > 10000 | –
19 | Cc1cnc(Nc2ccc(N3CCC(N(C)CC4CCCO4)CC3)c(F)c2)nc1-c1cnn(C(C)C)c1 (stereo not given) | 6 | 30 | 10 | 23 | 70 | 36

Results, then the compound that gave them:

Row | Activity [1] [%] | IC50 [2] [nM] | Activity [3] [%] | Activity [4] [%] | IC50 [5] [nM] | Activity [6] [%] | SMILES
20 | 12 | 27 | 27 | 57 | 410 | 68 | CCN1CCN(c2ccc(Nc3ncc(F)c(-c4cnn(C5CCCC5)c4)n3)cc2F)CC1
21 | – | 7800 | – | – | – | – | CC(C)n1cc(-c2nc(Nc3ccc(N4CCN(C)CC4)cc3F)ncc2F)cn1
22 | 16 | 57 | 39 | 113 | 850 | 77 | CCN1CCN(c2ccc(Nc3ncc(F)c(-c4cnn(C(C)C)c4)n3)c(F)c2)CC1
23 | – | 1100 | – | – | 4000 | – | CCN1CCN(c2ccc(Nc3ncc(C)c(-c4cnn(C(C)C)c4)n3)cc2F)CC1
24 | 6 | 42 | 3 | 35 | 120 | 40 | Cc1cnc(Nc2ccc(N3CCN(C)CC3)c(F)c2)nc1-c1cnn(C(C)C)c1
25 | 9 | 32 | 6 | 57 | 540 | 48 | CC(C)n1cc(-c2nc(Nc3ccc(N4CCC(N(C)C)CC4)c(F)c3)ncc2F)cn1
26 | 15 | 61 | 27 | 59 | 410 | 52 | CCCn1cc(-c2nc(Nc3ccc(N4CCN(CC)CC4)c(F)c3)ncc2F)cn1
27 | – | 26 | – | – | 940 | – | CC(C)n1cc(-c2nc(Nc3ccc(N4CCN(C)CC4)c(F)c3)ncc2F)cn1
28 | – | 4200 | – | – | > 10000 | – | CCCn1cc(-c2nc(Nc3ccc(N4CCN(CC)CC4)cc3F)ncc2F)cn1
29 | – | 8100 | – | – | 9700 | – | CCCn1cc(-c2nc(Nc3ccc(N4CCN(C)CC4)cc3F)ncc2F)cn1
30 | 14 | 57 | 19 | 48 | 490 | 69 | CCCn1cc(-c2nc(Nc3ccc(N4CCN(C)CC4)c(F)c3)ncc2F)cn1
31 | 17 | 31 | 17 | 62 | 250 | 66 | CCN1CCN(c2ccc(Nc3ncc(F)c(-c4cnn(C(C)C)c4)n3)cc2F)CC1
32 | 10 | 36 | 10 | 54 | 590 | 44 | CC(C)n1cc(-c2nc(Nc3ccc(N4CCN(C5CCN(C)CC5)CC4)c(F)c3)ncc2F)cn1
